Measurements taken from patent US12599603B2, “Methods of treatment” (INTRA-CELLULAR THERAPIES, INC., priority 2019, dated 2026).

What was measured:
CT26 murine cancer cells = experiment: Growth of CT26 murine colon carcinoma tumors in BALB/C mice (Example 1); assay type: in vivo; details: 50 mg/kg once daily i.p. from day 7, after 30 days, vs untreated control (FIG. 1)
Experimental: Aliquots of cancerous cells are injected into the subscapular space of BALB/C mice to induce colon carcinoma. The tumors are allowed to grow for 7 days, when tumor volume is measured. Once a tumor has formed, drug treatment is initiated (50 mg/kg Compound 1, once daily, i.p. in 0.5% methylcellulose vehicle) and tumor growth is observed and recorded daily. Compounds 1 is shown below:
The mice were sacrificed at thirty days post-injection, and the tumors are isolated from the mice.

[1] = system: immune cells in the tumor microenvironment of CT26 tumors; experiment: Flow cytometry of immune cells in dissociated CT26 tumors (Example 1); assay type: in vivo, BALB/C mice; details: 50 mg/kg once daily i.p.; tumors isolated at thirty days post-injection; flow cytometry (FIG. 2)
Experimental: The tumors were then enzymatically dissociated into a single cell suspensions, stained with fluorophore-tagged antibodies and are analyzed by flow cytometry. Cells were sorted and analyzed for immune markers. […] In turn, it is believed this this allows the innate immune system to more efficiently target tumor cells, which is consistent with the results observed here (i.e., increased activation of T-cells in the tumor microenvironment).

CT26 xenograft tumors = experiment: Growth of CT26 xenograft tumors, Compound 1 alone or with anti-PD-1 (Example 2); assay type: in vivo, BALB/c mice; details: Compound 1 50 mg/kg i.p. qd 5 days/week from day 7; anti-PD-1 sub-effective dose i.p. days 7, 10 and 14; isotype group zero out of nine
Experimental: The effects of Compound 1, alone or combination with sub-effective doses of the checkpoint inhibitor, anti-PD-1, were assessed on the growth of CT26 xenograft tumors in BALB/c mice. Treatment-naïve tumor-bearing mice (i.e., isotype group) were compared with groups of mice receiving monotherapy of Compound 1 defined in Example 1, mice receiving a sub-effective dose of a checkpoint inhibitor (anti-PD-1 antibody), and mice receiving both Compound 1 and a sub-effective dose of anti-PD-1 antibody.
(§1) BALB/c mice were subcutaneously injected with CT26 cells at day 0 and then divided into four groups at day 7: (1) Compound 1 treatment, (50 mg/kg, i.p. qd), 5 days/week; (2) Isotype group, ip mlgG isotype at days 7, 10 and 14; (3) Anti-PD-1 group, administered i.p. at days 7, 10 and 14; and (4) Combination group, treated with Compound 1 and anti-PD-1 as group 1 and group 3. Tumor volumes were measured every 2 or 3 days. At day 17-18, tumors were excised, dissected, and used to make single cell suspensions. These tumor single cell suspensions were incubated with FC blocker (eBioscience) and then stained with antibodies on ice in the dark. Samples were acquired on a FACSCalibur, LSRII or LSRII yellow (BD Biosciences), and analyzed with FlowJo (Tree Star).
At the end of experiments, tumors were also weighed.

[2] = system: tumor-infiltrating immune cells of CT26 tumors; experiment: FACS of tumor-infiltrating immune cells in CT26 tumors (Example 2); assay type: in vivo, BALB/c mice; details: FACS of tumors excised at day 17-18
Experimental: as §1

SMILES: CN1C(=O)c2c(nn(Cc3ccc(-c4cccc(F)n4)cc3)c2Nc2ccccc2)N2C1=N[C@@H]1CCC[C@@H]12 [Compound 1]
- tumor growth (CT26 murine cancer cells): significantly slowed tumor growth
- CD8 T-cells in the tumor microenvironment [1]: significant increases
- macrophage presence in the tumor microenvironment [1]: significant decrease
- monocytes in the tumor microenvironment [1]: significant increases
- mice showing tumor clearance (tumor volume smaller than 100 mm^3) (CT26 xenograft tumors): one out of five
- numbers of CD45+ tumor (infiltrating) macrophages [2]: significantly decreased numbers
- numbers of CD45+ tumor (infiltrating) monocytes [2]: significantly decreased numbers
